Measured values taken from patent US6906098B2, “Mixed steroidal 1,2,4,5-tetraoxane compounds and methods of making and using thereof” (priority 2002, dated 2005).
In brackets after ≈: the same amount, converted by molar mass.

Assays:
[1] = tested on: Mycobacterium tuberculosis H37Rv (ATCC 27294); experiment: Primary screen, Microplate Alamar Blue Assay (MABA), percent inhibition; assay type: cell-based; settings: Mycobacterium tuberculosis, Table 5; Alamar assay, primary screening at 6.25 μg/ml; read-out: % Inhib
Outline: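 Single-concentration screen at 6.25 μg/ml (or molar equivalent of the heaviest congener in a series) against H37Rv grown in BACTEC 12B medium. Growth read by Microplate Alamar Blue Assay, reported as percent inhibition.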

[2] = tested on: 60 human tumor cell lines; experiment: DTP Human Tumor Cell Line Screen, full panel; assay type: cell-based; settings: range over 60 cell lines, after 48 h, read-out: LC50 (the source's name)
Experimental: In preliminary tests, four compounds (1B14a, 1C44, 1C45, and 1C46) were chosen by NIH-NCI for in vitro screening. See Drug discovery and development program, National Cancer Institute, Bethesda, (NCI), http://dtp.nci.nih.gov. All tetraoxanes were evaluated in the 3-cell line (lung—NCI-H460, breast—MCF7, CNS-SF-268) one dose primary anticancer assay: growth percentage after 48 hours, at 100 μM concentration of tested compound. Two compounds were eliminated at this step (1B14a and 1C46), while the acid 1C44 and primary amide 1C45 were evaluated against the full panel of 60 human tumor cell lines starting with 10^−4 M concentration of investigated compounds.
The activity of numerous compounds of the present invention against various cancer cell lines was submitted to the Developmental Therapeutics Program (DTP) at the National Cancer Institute (NCI) of the National Institutes of Health (NIH) for screening.
The DTP Human Tumor Cell Line Screen utilizes 60 different human tumor cell lines, representing leukemia, melanoma and cancers of the lung, colon, brain, ovary, breast, prostate, and kidney according to conventional methods known in the art. […]

[3] = tested on: D6 and W2 P. falciparum clones; assay type: cell-based, Plasmodium falciparum; settings: IC50 (W2)/IC50 (D6) ratio
[4] = tested on: Plasmodium falciparum chloroquine-resistant strain W2; experiment: microbe, parasite or virus in culture; assay type: cell-based; settings: Plasmodium falciparum, W2, 66 h, read-out: Strain W2 IC50, growth inhibition, chloroquine-resistant strain W2, 66 h incubation
M. tuberculosis H37Rv = experiment: Minimum inhibitory concentration (MIC) in the MABA; assay type: cell-based, Mycobacterium tuberculosis; settings: Mycobacterium tuberculosis, H37RV, Table 5; Alamar assay, M. tuberculosis H37Rv; read-out: MIC
Outline: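 Run under the NIAID TAACF screening program against M. tuberculosis by fluorescence read-out. MIC taken as the lowest concentration giving 90% reduction in fluorescence relative to controls.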

[5] = tested on: Plasmodium falciparum chloroquine-susceptible strain D6; experiment: In vitro antimalarial drug susceptibility assay (radiolabeled hypoxanthine incorporation), strain D6; assay type: cell-based; settings: Plasmodium falciparum, D6, 66 h, read-out: Strain D6 IC50, growth inhibition, chloroquine-susceptible strain D6, 66 h incubation
[6] = tested on: red blood cell (RBC) membrane; experiment: Hemolytic activity test; settings: initial experiments
[7] = tested on: standard panel of 12 tumor cell lines in hollow fibers (IP and SC implants); experiment: Hollow Fiber Assay; assay type: in vivo, mice
Experimental: Generally, as a preliminary in vivo screening tool, the following assay is conducted. A standard panel of 12 tumor cell lines were used for the routine hollow fiber screening of the in vitro activities. These include NCI-H23, NCI-H522, MDA-MB-231, MDA-MB-435, SW-620, COLO 205, LOX, UACC-62, OVCAR-3, OVCAR-5, U251 and SF-295 according to conventional methods known in the art. See e.g. Hollingshead, M., et al. (1995) Life Sciences 57:131-141, which is herein incorporated by reference. The cell lines are cultivated in RPMI-1640 containing 10% FBS and 2 mM glutamine. On the day preceeding hollow fiber preparation, the cells are given a supplementation of fresh medium to maintain log phase growth. […] On the day of implantation, samples of each tumor cell line preparation are quantitated for viable cell mass by a stable endpoint MTT assay so that the time zero cell mass is known. […] The optical density of each sample is determined spectrophotometrically at 540 nm and the mean of each treatment group is calculated. The percent net growth for each cell line in each treatment group is calculated and compared to the percent net growth in the vehicle treated controls.
A 50% or greater reduction in percent net growth in the treated samples compared to the vehicle control samples is considered a positive result. […] A compound is referred for xenograft testing if it has a combined IP+SC score of 20 or greater, a SC score of 8 or greater, or produces cell kill of any cell line at either dose level evaluated.

Q: Which inhibition at 6.25 µg/mL [1] does the source give for `COC(=O)CCC(C)[C@H]1CCC2C3C(C[C@H](OC(C)=O)[C@@]21C)[C@@]1(C)CCC2(C[C@H]1C[C@H]3OC(C)=O)OOC1(CCCCCCC1)OO2` (stereo partly drawn) [8c/1B11, Methyl 7α,12α-diacetoxy-5β-cholan-24-oate-3-spiro-6′-(1′,2′,4′,5′-tetraoxacyclohexane)-3′-spirocyclooctane] here?
A: The inhibition at 6.25 µg/mL was 0%.

Q: What about the CC50 [2] of the same compound?
A: The CC50 was > 100 µM.

Q: And the “Resistance Index” value [3]?
A: Its value is 0.41.

Q: What about the IC50 [4] of the same compound?
A: Its IC50 is 0.0133 µg/mL (≈ 0.02 µM).

Q: And the MIC (M. tuberculosis H37Rv)?
A: Its MIC is > 6.25 µg/mL.

Q: And the IC50 [5]?
A: Its IC50 is 0.0321 µg/mL (≈ 0.0484 µM).

Q: For `CCCNC(=O)CCC(C)[C@H]1CCC2C3C(C[C@H](OC(C)=O)[C@@]21C)[C@@]1(C)CCC2(C[C@H]1C[C@H]3OC(C)=O)OOC1(CCCCC1)OO2` (stereo partly drawn) [11/1C20, N-(n-Propyl)-7α,12α-diacetoxy-5β-cholan-24-amide-3-spiro-6′-(1′,2′,4′,5′-tetraoxacyclohexane)-3′-spirocyclohexane], which inhibition at 6.25 µg/mL [1] is on record?
A: The inhibition at 6.25 µg/mL was 88%.

Q: What about the “Resistance Index” value [3] of the same compound?
A: The value was 0.46.

Q: What about the “red blood cell (RBC) membrane lysis” value [6] of the same compound?
A: The value was “no red blood cell (RBC) membrane lysis”.

Q: What about the IC50 [4] of the same compound?
A: Its IC50 is 0.0045 µg/mL (≈ 0.0068 µM).

Q: And the MIC (M. tuberculosis H37Rv)?
A: Its MIC is > 6.25 µg/mL.

Q: What about the “Total Score” value ([7]; combined IP+SC, maximum possible 96) of the same compound?
A: The value was 20.

Q: What about the IP score ([7]; intraperitoneal implants, agent by intraperitoneal injection at 2 dose levels, daily for 4 days) of the same compound?
A: The IP score was 18.

Q: What about the SC score ([7]; subcutaneous implants) of the same compound?
A: Its SC score is 2.

Q: And the IC50 [5]?
A: Its IC50 is 0.00977 µg/mL (≈ 0.0148 µM).
